From article PMC12668310, “High‐Throughput Synthesis and Screening of a Cyanimide Library Identifies Selective Inhibitors of ISG15‐Specific Protease mUSP18” (Angewandte Chemie (International Ed. in English), 2025) come the findings set out here.

The test deals with T1, mUSP18 (Mus musculus, UniProt Q9WTV6).
T1 construct: (46-368); His-tag (N); made in house
T1 sequence (Q9WTV6 46-368): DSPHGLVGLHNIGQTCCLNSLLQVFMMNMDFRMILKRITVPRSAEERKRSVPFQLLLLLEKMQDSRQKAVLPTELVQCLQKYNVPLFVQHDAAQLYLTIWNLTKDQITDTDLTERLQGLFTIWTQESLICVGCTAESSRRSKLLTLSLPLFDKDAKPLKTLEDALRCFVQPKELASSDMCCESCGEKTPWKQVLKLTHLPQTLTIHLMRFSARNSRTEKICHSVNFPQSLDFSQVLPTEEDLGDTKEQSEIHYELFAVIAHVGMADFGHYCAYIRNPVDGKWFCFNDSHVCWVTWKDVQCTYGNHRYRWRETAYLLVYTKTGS
Nature of the test: Covalent complex formation, intact protein mass spectrometry. As to conditions: 1.4 μM mUSP18, 14 µM compound, 30 min. In kind it is binding, murine. On the procedure: We further explored the potential of our mUSP18 hits. […] Based on previous data, these cyanimides likely bind to mUSP18 in a covalent manner. Indeed, intact protein mass spectrometry analysis confirmed the formation of a covalent stoichiometric mUSP18‐BB07CA902 complex, showing a mass difference of 311 Da, which corresponds to the addition of exactly one molecule of BB07CA902 (Figures 5c, S9). […] (Figure S9).
High-throughput screening
The screens were performed at room temperature in “flat bottom, non-treated, black […]
µM. The compounds (10 nL each) were transferred from the 1 mM daughter plates to the […]
Four wells containing DMSO
(10 nL) and four wells containing NEM (10 mM final concentration) were used in each plate […]
The percentage inhibition was calculated for each well using the […]
Where FIx is the fluorescence intensity of each well, FIpos is the average fluorescence intensity of the positive (NEM) control wells, and FIneg is the average fluorescence intensity of the negative (DMSO) control wells. […]
Samples were then diluted 3-fold with water and analyzed by mass spectrometry by injecting 2 μL into a Waters XEVO-G2 XS Q-TOF mass spectrometer equipped with an electrospray ion source in positive mode (capillary voltage 1.2 kV, desolvation gas flow 900 L/h, T = 60 °C) with a resolution of R = 26,000. […]

SMILES strings stand for the structures.

In the case of `Cc1cc(C(=O)N[C@H]2C[C@@H]3CN(C#N)C[C@@H]3C2)ccc1C(C)C` [BB07CA902], the “mass difference of covalent stoichiometric mUSP18-inhibitor complex” value was 311 Da.
